Structures can show the parent of a compound that is named as a salt.
target: T1, SAA binding to purified THP-1 cell membranes (Homo sapiens, UniProt P0DJI8); assay: Inhibition of SAA binding to purified cell membranes (ELISA); conditions: purified cell membranes (THP-1 per Example 54), hydrochloride, read-out: Serum Amyloid A/Membrane Activity (IC-50)
T1 sequence (P0DJI8 19-122): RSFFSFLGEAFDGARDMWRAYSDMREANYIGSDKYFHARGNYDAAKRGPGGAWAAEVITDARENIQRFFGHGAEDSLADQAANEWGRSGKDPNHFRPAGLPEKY
Method: THP-1 (human acute monocyte leukemia cell line; ATCC cat. no. TIB-202) cell membranes were prepared by differential centrifugation as follows. THP-1 cell was grown in RPMI 1640 media (GIBCO Cat. No. 21875034, supplemented with 10% FBS) at 37 degree Celsius 5% CO2 atmosphere, harvested, and stored at −80 degree Celsius. Frozen THP-1 cells were homogenized in HEPES-Buffered sucrose (0.32M sucrose, 4 mM HEPES pH7.4, protease inhibitors) with a motor driven glass-teflon homogenizer. After removing nuclear and cell debris by centrifugation of homogenates at 1,000×g for 10 min at 4 degree Celsius, post-nuclear supernatant was centrifuged at 10,000×g for 15 minutes to remove mitochondrial fraction. Resulting supernatant was centrifuged at 100,000×g for 30 minutes to yield the crude membrane pellet. Crude membrane pellet was re-suspended in 0.32M sucrose, then centrifuged again at 100,000 xg for 30 minutes to yield washed membrane pellet. Membrane pellet was resuspended in sterile PBS (pH7.4), quickly frozen and kept in aliquots at −80 degrees Celsius. This preparation contains mostly cell membranes. Protein concentration was measured with BCA protein assay kit (Pierce Cat. No. 23227). The binding assay was performed as described in Example 48, with the following modifications. Following to coating the plates with purified human THP-1 cell membranes at 0.01 mg/ml concentration, plates were washed and blocked with 2% milk as described. The compounds were dissolved in DMSO at 10 mM final concentration and further diluted prior to assay. DMSO concentration in the screening well was up to 2%. Individual compounds were co-incubated with SAA on plates coated with cell membranes. SAA from PreProtech (NJ, USA, Cat. No. 300-53) was dissolved in DMSO, quickly frozen and kept in aliquots at −80 degrees Celsius. SAA dissolved in Tris Buffer (pH 6.5, supplemented with BSA, 0.1%) was added to the ELISA plate (100 μl per well) and incubated for 2 hours at RT with gentle shaking. Following the incubation, the plate was washed with de-ionized water and three times with TBS (pH 6.5) plus Tween. Bound SAA was detected by Anti-SAA Monoclonal Antibody (R&D System Cat. No. MAB30192, followed by secondary anti-IgG antibody conjugated to HRP (R&D System, Cat. No. HAF007). Antibody was diluted in TBS antibody buffer (pH6.5 supplemented with 1% BSA). Following each incubation with antibody, the plate was washed with de-ionized water and three times with TBS (pH6.5) wash buffer containing 0.1% Tween. Following to color development with TMB, as described in Example 49, the Optical Density of the samples was measured at 450 nm using an ELISA plate reader. Following color development, the % inhibition compared to control (no compound, DMSO control) for every compound was determined.
For each compound IC-50 value is shown in μM (micromolar). In some cases IC-50 was not measured and % inhibition at 30 μM compound concentration is shown instead. […] All assays were done on 96-well plates in duplicates and experiments were repeated at least twice. In the Table, the following abbreviations are used: A: compounds that inhibited>30% at 30 μM concentrations; B: compounds that inhibited<30% at 30 μM concentrations; NT: compounds for which inhibition curve was not obtained.

Question: With `C/C(=N\Nc1ncnc2cc(Cl)ccc12)c1ccc(-n2cc(C)nc2C)nc1` [Compound 27, (E)-7-chloro-4-(2-(1-(6-(2,4-dimethyl-1H-imidazol-1-yl)pyridin-3-yl)ethylidene)hydrazineyl)quinazoline hydrochloride] as the compound, how does the IC50 read?
Answer: Its IC50 is 14 µM.

same assay, conditions: purified cell membranes (THP-1 per Example 54), read-out: Serum Amyloid A/Membrane Activity (IC-50)

Question: With `Cc1cc(-n2ccnc2)ccc1/C=N/Nc1ccnc2cc(Cl)ccc12` [Compound 1, (E)-4-((E)-(4-(1H-imidazol-1-yl)-2-methylbenzylidene)hydrazono)-7-chloro-1,4-dihydroquinoline] as the compound, how does the IC50 read?
Answer: Its IC50 is 12.3 µM.

Question: Which IC50 does the source give for `C/C(=N\Nc1ncnc2cc(Cl)ccc12)c1ccc(-n2cc(C)nc2C)nc1` [Compound 18, (E)-7-chloro-4-(2-(1-(6-(2,4-dimethyl-1H-imidazol-1-yl)pyridin-3-yl)ethylidene)hydrazineyl)quinazoline phosphoric acid salt] here?
Answer: Its IC50 is 24 µM.

Question: How did the IC50 turn out when `C/C(=N\Nc1ncnc2cc(F)ccc12)c1ccc(-n2cnc(C)c2C)nc1` [Compound 21, (E)-4-(2-(1-(6-(4,5-dimethyl-1H-imidazol-1-yl)pyridin-3-yl)ethylidene)hydrazineyl)-7-fluoroquinazoline] was run?
Answer: The IC50 was 47.8 µM.

Question: Which IC50 does the source give for `C/C(=N\Nc1nncc2cc(Cl)ccc12)c1ccc(-n2cc(C)nc2C)nc1` [Compound 24, (E)-6-chloro-1-(2-(1-(6-(2,4-dimethyl-1H-imidazol-1-yl)pyridin-3-yl)ethylidene)hydrazineyl)phthalazine] here?
Answer: The IC50 was 8.22 µM.

Question: Which IC50 does the source give for `CC(=NNc1ncnc2cc(Cl)ccc12)c1ccnc(-n2cnc(C)c2C)c1` [Compound 28, 7-chloro-4-(2-(1-(2-(4,5-dimethyl-1H-imidazol-1-yl)pyridin-4-yl)ethylidene)hydrazineyl)quinazoline] here?
Answer: Its IC50 is 22.9 µM.

Question: With `Clc1ccc2c(Nc3ccc(-n4ccnc4)nc3)ncnc2c1` [Compound 41, N-(6-(1H-imidazol-1-yl)pyridin-3-yl)-7-chloroquinazolin-4-amine] as the compound, how does the IC50 read?
Answer: Its IC50 is 13.2 µM.

same assay, conditions: read-out: Serum Amyloid A/Membrane Activity (IC-50), purified cell membranes (THP-1 per Example 54)

Question: How did the IC50 turn out when `COc1cc2nccc(N/N=C/c3ccc(-n4ccnc4)c(OC)c3)c2cc1OC` [Compound 13, (E)-4-(2-(4-(1H-imidazol-1-yl)-3-methoxybenzylidene)hydrazineyl)-6,7-dimethoxyquinoline phosphate] was run?
Answer: The IC50 was 44.5 µM.

Question: `Clc1ccc2c(N/N=C/c3ccc(-n4ccnc4)nc3)ccnc2c1` [Compound 14, (E)-4-(2-((6-(1H-imidazol-1-yl)pyridin-3-yl)methylene)hydrazineyl)-7-chloroquinoline hydrochloride] was tested. Which IC50 did it give?
Answer: The IC50 was 27.5 µM.

Question: Which IC50 does the source give for `Cc1ncn(-c2ccc(/C=N\Nc3ncnc4cc(Cl)ccc34)cn2)c1C` [Compound 15, 7-chloro-4-(2-((6-(4,5-dimethyl-1H-imidazol-1-yl)pyridin-3-yl)methylene)hydrazineyl)quinazoline hydrochloride] here?
Answer: The IC50 was 32.5 µM.

Question: For `C/C(=N\Nc1ncnc2cc(Cl)ccc12)c1ccc(-n2cnc(C)c2C)nc1` [Compound 16, 7-chloro-4-(2-(1-(6-(4,5-dimethyl-1H-imidazol-1-yl)pyridin-3-yl)ethylidene)hydrazineyl)quinazoline phosphate], which IC50 is on record?
Answer: Its IC50 is 9.93 µM.

Question: `Cc1ncn(-c2ccc(Nc3ncnc4cc(Cl)ccc34)cn2)c1C` [Compound 25, 7-chloro-N-(6-(4,5-dimethyl-1H-imidazol-1-yl)pyridin-3-yl)quinazolin-4-amine] was tested. Which IC50 did it give?
Answer: The IC50 was 22 µM.

Question: For `COc1cc(Nc2nncc3cc(Cl)ccc23)cnc1-n1cnc(C)c1C` [Compound 31, 6-chloro-N-(6-(4,5-dimethyl-1H-imidazol-1-yl)-5-methoxypyridin-3-yl)phthalazin-1-amine phosphoric acid salt], which IC50 is on record?
Answer: Its IC50 is 70.8 µM.

Question: How did the IC50 turn out when `Clc1ccc2c(Nc3ccc(-n4cncn4)nc3)ncnc2c1` [Compound 34, N-(6-(1H-1,2,4-triazol-1-yl)pyridin-3-yl)-7-chloroquinazolin-4-amine phosphoric acid salt] was run?
Answer: Its IC50 is 8.66 µM.

Question: For `CC(=NNc1ccnc2cc(Cl)ccc12)c1ccc(-n2ccnc2)cc1` [Compound 36, 4-(2-(1-(4-(1H-imidazol-1-yl)phenyl)ethylidene)hydrazineyl)-7-chloroquinoline phosphate], which IC50 is on record?
Answer: The IC50 was 15.3 µM.

Question: For `Clc1ccc2c(N/N=C/c3ccc(-n4ccnc4)cc3)ccnc2c1` [Compound 38, 4-(2-(4-(1H-imidazol-1-yl)benzylidene)hydrazineyl)-7-chloroquinoline dihydrochloride], which IC50 is on record?
Answer: The IC50 was 23.6 µM.

Question: With `Clc1ccc2c(Nc3ccc(-n4cncn4)nc3)ccnc2c1` [Compound 44, N-(6-(1H-1,2,4-triazol-1-yl)pyridin-3-yl)-7-chloroquinolin-4-amine] as the compound, how does the IC50 read?
Answer: Its IC50 is 11.4 µM.

Source: patent publication US20240398783A1, “Compounds and Pharmaceutical Compositions Comprising Inhibitors of Amyloid Peptide Interactions with Glycosaminoglycans, Methods of Treatment and Use Thereof” (Gismo Therapeutics, Inc., priority 2021, published 2024)
